Measurements as given in article PMC3553014, “Albumin Stimulates the Activity of the Human UDP-Glucuronosyltransferases 1A7, 1A8, 1A10, 2A1 and 2B15, but the Effects Are Enzyme and Substrate Dependent” (PLoS ONE, 2013).
Several values for one entry are separate records, joined by “and”; a condition that tells them apart may be missing. Equal entries are not always repeated. Where two headings read alike, the source gives them in different places. Blank lines part the entries; values can stand above or below the molecule they belong to.

Tests used:
UGT2B17 = molecular target: T1, UGT2B17 (Homo sapiens, UniProt O75795)
T1 sequence (O75795 24-530): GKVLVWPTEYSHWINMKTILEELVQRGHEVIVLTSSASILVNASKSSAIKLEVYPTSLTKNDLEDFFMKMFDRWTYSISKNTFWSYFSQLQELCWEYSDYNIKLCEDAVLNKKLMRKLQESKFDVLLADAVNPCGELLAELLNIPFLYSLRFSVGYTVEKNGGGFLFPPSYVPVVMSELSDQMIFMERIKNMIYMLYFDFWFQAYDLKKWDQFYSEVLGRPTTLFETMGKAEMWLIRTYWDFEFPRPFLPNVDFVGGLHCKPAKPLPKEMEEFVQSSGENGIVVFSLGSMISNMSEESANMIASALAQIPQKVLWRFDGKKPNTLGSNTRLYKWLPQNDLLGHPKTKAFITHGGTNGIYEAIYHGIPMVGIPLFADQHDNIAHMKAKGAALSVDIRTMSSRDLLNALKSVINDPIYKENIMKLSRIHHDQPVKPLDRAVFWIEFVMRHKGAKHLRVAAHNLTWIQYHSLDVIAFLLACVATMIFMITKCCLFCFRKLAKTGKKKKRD
Protocol: (§1) Recombinant human UGTs 1A1, 1A6, 1A7, 1A8, 1A10, 2A1, 2B4, 2B7 and 2B17 were expressed as His-tagged proteins in baculovirus-infected insect cells as described previously [14]. […] Protein concentrations were determined by the BCA method (Pierce Biotechnology, Rockford, IL, USA).
(§2) The protein concentrations and incubation times for the enzyme kinetic assays were selected based on preliminary assays in order to ensure that the product formation was within the linear range with respect to both protein concentration and time, and that the substrate consumption during the reaction was less than 10%. The initial velocity measurements were performed in either duplicates or triplicates and they are presented as the average values and S.E.
(§3) The glucuronidation rates by recombinant enzymes are reported as “expression normalized” values. The relative expression level of each recombinant UGT that was produced in our laboratory was determined using immunoblotting, as previously described [14], [19]. The dot blot assays were performed in triplicate and the average value was used for normalization. […] The “expression normalized” glucuronidation rates were calculated by dividing the measured glucuronidation rates with relative expression level of the each given recombinant UGT.
(§4) In assays containing BSA, the total concentrations of substrate were corrected according to the measured drug binding to BSA, under the specific conditions of each glucuronidation assay. The statistical significance of the difference in enzyme kinetics parameters upon BSA addition was tested with extra sum-of-squares F-test (included in the GraphPad software, [20]. The initial glucuronidation rates were fitted to the following equations:

UGT1A1 = molecular target: T2, UGT1A1 (Homo sapiens, UniProt P22309); assay: UGT1A1-catalyzed glucuronidation, enzyme kinetics
T2 sequence (P22309 26-533): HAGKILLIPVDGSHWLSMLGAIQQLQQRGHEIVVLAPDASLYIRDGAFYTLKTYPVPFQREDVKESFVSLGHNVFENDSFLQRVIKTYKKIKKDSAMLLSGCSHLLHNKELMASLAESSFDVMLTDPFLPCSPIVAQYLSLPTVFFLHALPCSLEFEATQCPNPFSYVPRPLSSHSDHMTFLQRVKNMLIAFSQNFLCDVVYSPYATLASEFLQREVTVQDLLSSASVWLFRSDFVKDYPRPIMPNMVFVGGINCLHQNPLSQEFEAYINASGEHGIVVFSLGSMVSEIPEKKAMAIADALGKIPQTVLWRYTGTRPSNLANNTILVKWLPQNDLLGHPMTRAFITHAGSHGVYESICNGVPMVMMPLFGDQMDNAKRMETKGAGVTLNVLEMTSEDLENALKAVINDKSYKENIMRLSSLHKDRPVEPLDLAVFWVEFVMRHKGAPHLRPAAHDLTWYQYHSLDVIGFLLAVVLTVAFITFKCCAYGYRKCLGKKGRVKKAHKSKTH
Protocol: as §1, §2, §3, §4

UGT1A6 = molecular target: T3, UGT1A6 (Homo sapiens, UniProt P19224); assay: UGT1A6-catalyzed glucuronidation, enzyme kinetics
T3 sequence (P19224 27-532): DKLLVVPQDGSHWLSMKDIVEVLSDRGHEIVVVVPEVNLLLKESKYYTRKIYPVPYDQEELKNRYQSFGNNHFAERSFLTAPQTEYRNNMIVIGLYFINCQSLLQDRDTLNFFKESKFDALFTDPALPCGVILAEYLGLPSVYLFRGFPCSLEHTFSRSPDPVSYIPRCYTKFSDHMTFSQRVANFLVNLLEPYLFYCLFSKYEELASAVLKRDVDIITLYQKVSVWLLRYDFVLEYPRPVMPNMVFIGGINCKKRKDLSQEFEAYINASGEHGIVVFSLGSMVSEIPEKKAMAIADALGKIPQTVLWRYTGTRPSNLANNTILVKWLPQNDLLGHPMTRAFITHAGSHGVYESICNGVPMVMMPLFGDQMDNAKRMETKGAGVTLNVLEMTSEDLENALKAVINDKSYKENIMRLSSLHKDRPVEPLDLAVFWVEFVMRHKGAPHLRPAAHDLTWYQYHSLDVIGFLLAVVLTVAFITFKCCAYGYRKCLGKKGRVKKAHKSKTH
Protocol: as §1, §2, §3, §4

UGT1A8 = molecular target: T4, UGT1A8 (Homo sapiens, UniProt Q9HAW9); assay: UGT1A8-catalyzed glucuronidation, enzyme kinetics
T4 sequence (Q9HAW9 26-530): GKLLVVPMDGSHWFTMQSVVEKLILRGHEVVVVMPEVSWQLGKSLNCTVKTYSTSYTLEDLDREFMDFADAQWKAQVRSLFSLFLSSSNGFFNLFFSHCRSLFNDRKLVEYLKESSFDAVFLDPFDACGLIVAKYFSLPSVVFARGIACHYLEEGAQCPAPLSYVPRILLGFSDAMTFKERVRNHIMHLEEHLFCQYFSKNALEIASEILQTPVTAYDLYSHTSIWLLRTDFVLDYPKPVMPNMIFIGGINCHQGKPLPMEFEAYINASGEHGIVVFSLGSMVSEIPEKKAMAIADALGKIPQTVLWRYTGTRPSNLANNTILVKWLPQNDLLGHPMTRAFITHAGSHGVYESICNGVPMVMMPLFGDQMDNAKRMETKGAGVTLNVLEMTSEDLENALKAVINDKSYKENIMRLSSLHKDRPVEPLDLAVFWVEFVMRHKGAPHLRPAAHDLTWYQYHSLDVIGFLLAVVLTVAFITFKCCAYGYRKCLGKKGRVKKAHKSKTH
Protocol: as §1, §2, §3
(§5) In assays containing BSA, the total concentrations of substrate were corrected according to the measured drug binding to BSA, under the specific conditions of each glucuronidation assay.

UGT1A7 = molecular target: T5, UGT1A7 (Homo sapiens, UniProt Q9HAW7); assay: UGT1A7-catalyzed glucuronidation, enzyme kinetics; type: in vitro ADME; conditions: No BSA; expression level-normalized
T5 construct: His-tag; made in house; host or cells: baculovirus-infected insect cells (Sf9)
T5 sequence (Q9HAW7 26-530): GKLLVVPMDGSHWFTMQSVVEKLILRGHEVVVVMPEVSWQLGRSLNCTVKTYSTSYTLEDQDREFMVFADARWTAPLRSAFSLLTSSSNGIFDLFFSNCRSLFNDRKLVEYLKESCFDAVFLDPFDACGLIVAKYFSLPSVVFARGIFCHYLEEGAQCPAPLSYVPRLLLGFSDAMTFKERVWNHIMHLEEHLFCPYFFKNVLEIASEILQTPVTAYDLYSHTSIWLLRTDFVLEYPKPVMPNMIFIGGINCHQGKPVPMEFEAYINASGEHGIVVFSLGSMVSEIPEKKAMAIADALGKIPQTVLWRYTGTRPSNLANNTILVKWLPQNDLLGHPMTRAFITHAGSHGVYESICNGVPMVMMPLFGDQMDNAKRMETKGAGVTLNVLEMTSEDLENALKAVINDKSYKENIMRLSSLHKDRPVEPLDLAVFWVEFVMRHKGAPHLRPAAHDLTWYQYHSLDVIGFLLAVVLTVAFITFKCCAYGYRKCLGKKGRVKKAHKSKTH
Protocol: Protein concentrations were determined by the BCA method (Pierce Biotechnology, Rockford, IL, USA).
as §2
The glucuronidation rates by recombinant enzymes are reported as “expression normalized” values. […] The “expression normalized” glucuronidation rates were calculated by dividing the measured glucuronidation rates with relative expression level of the each given recombinant UGT.
The enzyme kinetic parameters were obtained by fitting kinetic models to the experimental data using GraphPad Prism version 5.04 for Windows (GraphPad Software Inc., San Diego, CA, USA).

UGT1A10 = molecular target: T6, UGT1A10 (Homo sapiens, UniProt Q9HAW8); assay: UGT1A10-catalyzed glucuronidation, enzyme kinetics; type: in vitro ADME; conditions: No BSA; expression level-normalized; estradiols: 3-glucuronide formation
T6 construct: His-tag; made in house; host or cells: baculovirus-infected insect cells (Sf9)
T6 sequence (Q9HAW8 26-530): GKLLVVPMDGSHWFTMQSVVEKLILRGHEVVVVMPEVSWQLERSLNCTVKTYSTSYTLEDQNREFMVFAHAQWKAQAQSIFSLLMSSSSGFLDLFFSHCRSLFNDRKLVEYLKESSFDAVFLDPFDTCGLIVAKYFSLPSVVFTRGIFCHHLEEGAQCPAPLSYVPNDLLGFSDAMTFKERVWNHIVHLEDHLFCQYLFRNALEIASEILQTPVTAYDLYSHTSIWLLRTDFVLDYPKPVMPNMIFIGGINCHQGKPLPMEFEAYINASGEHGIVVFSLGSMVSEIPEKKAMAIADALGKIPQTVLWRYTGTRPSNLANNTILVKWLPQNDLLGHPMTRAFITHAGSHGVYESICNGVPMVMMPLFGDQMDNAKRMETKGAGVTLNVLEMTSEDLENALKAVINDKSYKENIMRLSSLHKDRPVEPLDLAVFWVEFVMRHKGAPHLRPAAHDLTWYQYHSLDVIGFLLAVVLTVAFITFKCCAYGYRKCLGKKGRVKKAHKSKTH
Protocol: as §1, §2
The glucuronidation rates by recombinant enzymes are reported as “expression normalized” values. The relative expression level of each recombinant UGT that was produced in our laboratory was determined using immunoblotting, as previously described [14], [19]. […] The “expression normalized” glucuronidation rates were calculated by dividing the measured glucuronidation rates with relative expression level of the each given recombinant UGT.
as §5

BSA [1] = molecular target: T7, BSA (Bos taurus, UniProt P02769); set-up: purchased Sigma-Aldrich (St. Louis, MO, USA); conditions: cited from earlier work
T7 sequence (P02769 25-607): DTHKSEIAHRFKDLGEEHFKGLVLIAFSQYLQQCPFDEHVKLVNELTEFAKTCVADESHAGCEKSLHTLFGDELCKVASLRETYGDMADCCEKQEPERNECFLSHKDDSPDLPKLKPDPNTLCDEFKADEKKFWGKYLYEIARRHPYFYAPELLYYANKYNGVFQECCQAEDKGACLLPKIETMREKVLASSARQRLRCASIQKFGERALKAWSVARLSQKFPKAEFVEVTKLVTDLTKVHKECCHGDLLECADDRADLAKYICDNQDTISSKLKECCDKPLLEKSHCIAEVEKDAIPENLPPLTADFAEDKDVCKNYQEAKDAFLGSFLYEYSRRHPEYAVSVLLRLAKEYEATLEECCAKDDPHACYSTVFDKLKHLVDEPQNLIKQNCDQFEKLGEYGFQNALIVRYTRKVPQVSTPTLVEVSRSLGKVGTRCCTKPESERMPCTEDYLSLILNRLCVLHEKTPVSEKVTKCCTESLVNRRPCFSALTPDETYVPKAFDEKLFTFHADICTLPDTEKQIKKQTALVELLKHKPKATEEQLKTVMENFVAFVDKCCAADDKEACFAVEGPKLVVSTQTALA

BSA [2] = molecular target: T7, BSA; assay: in vitro; conditions: bovine
[3] = Drug binding to control insect cell membranes by RED; conditions: 0.2 mg/mL total protein in the membrane
not read [4] = substrate: Cc1cc(=O)oc2cc(O)ccc12; assay: not read; conditions: other: No BSA, pH 7.4
Protocol: as §1, §2, §3, §4

not read [5] = substrate: Oc1ccc2cc[nH]c2c1; assay: not read; conditions: other: No BSA, pH 7.4
Protocol: as §1, §2, §3, §4

Molecule: Oc1cccc2ccccc12 [1-Naphthol, 1-naphthol]
- K m or S 50 ± S.E. (UGT2B17): 540±26(485–595) µM and 484±27(427–541) µM
- V max ± S.E. (UGT2B17): 0.28±0.01(0.26–0.31) nmol•min^–1•mg^–1
- K m or S 50 ± S.E. (UGT1A1): 101±11(78–123) µM and 81.6±5.1(71.0–92.1) µM
- V max ± S.E. (UGT1A1): 0.11±0.01(0.10–0.13) nmol•min^–1•mg^–1
- K m or S 50 ± S.E. (UGT1A6; 0.1% BSA, substrate concentration corrected for binding to BSA): 5.25±0.23 ^***(4.78–5.72) µM
- K m or S 50 ± S.E. (UGT1A6; No BSA): 8.07±0.48(7.08–9.06) µM
- V max ± S.E. (UGT1A6; No BSA, expression level-normalized): 6.7±0.1(6.47–6.94) nmol•min^–1•mg^–1
- K m or S 50 ± S.E. (UGT1A8): 91.6±6.6(78.0–105.3) µM and 105±16(73–137) µM
- V max ± S.E. (UGT1A8): 2.5±0.1(2.3–2.7) nmol•min^–1•mg^–1

- V max ± S.E. (UGT1A7): 0.15±0.01(0.14–0.16) nmol•min^–1•mg^–1
- V max ± S.E. (UGT1A10): 0.91±0.01(0.89–0.94) nmol•min^–1•mg^–1
Molecule: CCN(CC)C(=O)/C(C#N)=C/c1cc(O)c(O)c([N+](=O)[O-])c1 [Entacapone]
- f u (unbound fraction) (BSA [1]; 1% BSA): < 0.1

- fraction unbound at 8 h (BSA [2]): 0.48 ± 0.01
- K m or S 50 ± S.E. (UGT1A1): 7.84±1.62(4.48–11.21) µM
- K m or S 50 ± S.E. (UGT1A1; 0.1% BSA, substrate concentration corrected for binding to BSA, estradiols: 3-glucuronide formation): 9.06±1.14(6.70–11.42) µM
- K m or S 50 ± S.E. (UGT1A8; 0.1% BSA, substrate concentration corrected for binding to BSA, 17β-estradiol: 3-glucuronide formation): 4.70±0.62 ^**(3.42–5.99) µM
- binding to control insect cell membrane [3]: negligible
Molecule: C[C@]12CC[C@@H]3c4ccc(O)cc4CC[C@H]3[C@@H]1CC[C@@H]2O [17β-Estradiol, 17β-estradiol]
- V max ± S.E. (UGT2B17): 0.013±0.0002(0.0125–0.0132) nmol•min^–1•mg^–1
- V max ± S.E. (UGT1A8): 0.020±0.0003(0.019–0.021) nmol•min^–1•mg^–1
- f u (unbound fraction) (BSA [1]; 2% BSA, 25 (Walsky et al. 2012)): 0.04

B1: UGT2A1 (Homo sapiens) (protein)
chain: GNVLIWPMEGSHWLNVKIIIDELIKKEHNVTVLVASGALFITPTSNPSLTFEIYKVPFGKERIEGVIKDFVLTWLENRPSPSTIWRFYQEMAKVIKDFHMVSQEICDGVLKNQQLMAKLKKSKFEVLVSDPVFPCGDIVALKLGIPFMYSLRFSPASTVEKHCGKVPYPPSYVPAVLSELTDQMSFTDRIRNFISYHLQDYMFETLWKSWDSYYSKALGGLLLCCPGWSAVADLGSLQPLLPGFKRFSRLSLHCSWDYRLPAGRPTTLCETMGKAEIWLIRTYWDFEFPRPYLPNFEFVGGLHCKPAKPLPKVLWRYKGKKPATLGNNTQLFDWIPQNDLLGHPKTKAFITHGGTNGIYEAIYHGVPMVGVPMFADQPDNIAHMKAKGAAVEVNLNTMTSVDLLSALRTVINEPSYKENAMRLSRIHHDQPVKPLDRAVFWIEFVMRHKGAKHLRVAAHDLTWFQYHSLDVIGFLLVCVTTAIFLVIQCCLFSCQKFGKIGKKKKRE
- K0.5 (not read [4]): 48.1±4.8(38.2–57.9) µM
- Vmax (not read [4]): 0.0021 µmol/min/mg
- K0.5 (not read [5]): 1474±121(1223–1724) µM
- Vmax (not read [5]): 0.00079 µmol/min/mg
